Measurements taken from patent US10428115B2, “Dynorphin A analogs with bradykinin receptors specificity for modulation of neuropathic pain” (THE ARIZONA BOARD OF REGENTS ON BEHALF OF THE UNIVERSITY OF …, priority 2013, dated 2019).
Where two headings read alike, the source gives them in different places. Square brackets hold non-standard residues; d marks the D form. Ends that are not written are not given here. Nle = CCCC[C@H](N)C(=O)O

Legend:
[1] = target: rat brain bradykinin receptors; experiment: Radioligand competition binding against [3H]DALKD in rat brain membranes; settings: for IC50: [3H]DALKD
Protocol: Binding affinities of dynorphin A analogs at the bradykinin receptors were determined by radioligand competition analysis using [^3H]DALKD or [^3H]BK in rat brain membranes or transfected HEK 293 cells expressing the human B2R. Crude rat brain membranes were pelleted and resuspended in 50 mM Tris buffer containing 50 μg/mL bacitracin, 10 μM captopril, 100 μM PMSF, and 5 mg/mL BSA. 10 concentrations of a test compound were each incubated with 50 μg of membranes and [^3H]DALKD (1 nM, 76.0 Ci/mmol) or [^3H]BK (1 nM, 85.4 Ci/mmol) at 25° C. for 2 h. Non-specific binding was defined by that in the presence of […] KD in all assays. Reactions were terminated by rapid filtration through Whatman GF/B filters presoaked in 1% polyethyleneimine, followed with four washes of 2 mL cold saline. Radioactivity was determined by liquid scintillation counting in a Beckman LS5000 TD. Data were analyzed by non-linear least squares analysis using GraphPad Prism (Version 4). […]

[2] = tested on: naive rats; experiment: Motor function and paralysis after intrathecal injection (hindlimb tests, tail-flick) in naive rats; type: in vivo, rat; settings: for motor function after intrathecal (spinal) injection: naive rats
Protocol: Intrathecal (i.th.) catheterization. While under ketamine/xylazine (80/12 mg/kg, i.p.) anesthesia, some groups of rats were implanted with i.th. catheters (polyethylene 10, 7.8 cm) through atlanto-occipital membrane extended to the level of the lumbar spinal cord for drug administration. Animals were allowed to recover for 7 days. Drugs were injected in a volume of 5 μl, followed by a 1 μl air bubble and a 9 μl saline flush.
Tail-flick test. The hot-water tail-flick test was performed by placing the distal third of the tail in a water bath maintained at 52° C. The latency until tail withdrawal from the bath was determined and compared among the treatments. A 10 sec cutoff was used to avoid tissue damage. Data were converted to percentage of antinociception by the following formula: (response latency−baseline latency)/(cutoff−baseline latency)*100.

[3] = tested on: SNL rats; experiment: Reversal of thermal hyperalgesia and tactile hypersensitivity in SNL rats (neuropathic pain model); type: in vivo, rat
[4] = Rotarod experiment
[5] = tested on: bradykinin-induced plasma extravasation; experiment: Bradykinin-induced rat paw oedema and plasma extravasation, intraplantar injection; type: in vivo
Protocol: Experiments were conducted on non-fasted male Sprague-Dawley rats (250-300 g) kept in a room controlled for temperature (22±2° C.) and illumination (12 h on and 12 h off). Under ketamine/xylazine (80/12 mg/kg, i.p.) anesthesia animals received an injection of Evans Blue (30 mg/mL/kg, i.v.) via tail vein and baseline paw volume for both hindpaws was measured by use of a plethysmometer (Ugo Basile). Animals then received 0.1 mL i.pl. injections in one hindpaw of normal saline (0.9% NaCl) containing BK either alone or mixed with HOE140 or LYS1044 (10 nmol/paw each). The contralateral paw received 0.1 mL saline and was used as a control. Oedema was measured at several 30, 60 and 90 min post i.pl. injections and expressed in mL as the difference (mL) between the test and control paws. Three hours post BK injections, animals were sacrificed and patches (10×5 mm) of the dorsal skin from both hindpaws were collected. The skin patches were then incubated separately in Eppendorf tubes containing 1.8 mL formamide at 60° C. water bath for 24 h to extract the dye. The tissue extraction was then centrifuged at 15000 rpm for 15 min and the supernatant was pipetted to a 96 well plate as triplicates and the absorbance was determined at 620 nm. The difference of the mean absorbance between the two hindpaws of each rat was used to compare the degree of plasma extravasation in different treatment groups.

[6] = Stability in plasma (t1/2)
[7] = tested on: guinea pig ileum; settings: compared with the enkephalins and β-endorphin; cited from earlier work
[8] = Table 1, brain bradykinin receptors, pH 6.8, read-out: IC50 (nM) at pH 6.8, n ≥ 2
[9] = Table 1, brain bradykinin receptors, pH 7.4, read-out: IC50 (nM) at pH 7.4, n ≥ 2
[10] = Table 6, rat brain bradykinin receptors, pH 6.8, read-out: IC50 (nM), cell marked at pH 6.8
[11] = Table 6, rat brain bradykinin receptors, pH 7.4, read-out: IC50 (nM) at pH 7.4, N > 2
[12] = Table 4, rat brain bradykinin receptors, pH 7.4, read-out: IC50 (nM) at pH 7.4, N > 2
[13] = Table 3, rat brain bradykinin receptors, pH 7.4, read-out: IC50 (nM) at pH 7.4, N > 2
[14] = Table 5, rat brain bradykinin receptors, pH 6.8, read-out: IC50 (nM), cell marked at pH 6.8
[15] = Table 2, rat brain bradykinin receptors, pH 7.4, read-out: IC50 (nM) at pH 7.4, n > 2
[16] = Table 5, rat brain bradykinin receptors, pH 7.4, read-out: IC50 (nM) at pH 7.4, N > 2

## CC[C@H](C)[C@H](NC(=O)[C@H](CCCNC(=N)N)NC(=O)[C@H](CCCNC(=N)N)NC(=O)[C@H](CC(C)C)NC(=O)[C@H](Cc1ccccc1)NC(=O)CNC(=O)CN)C(=O)N[C@@H](CCCNC(=N)N)C(=O)N1CCC[C@H]1C(=O)N[C@@H](CCCCN)C(=O)N[C@@H](CC(C)C)C(=O)N[C@@H](CCCCN)C(=O)O [Dyn (2-13), Gly-Gly-Phe-Leu-Arg-Arg-Ile-Arg-Pro-Lys-Leu-Lys, reference compound]
[1]; [8]
  IC50: 21 nM
[1]; [9]
  IC50: 170 nM
[2]
  motor function after intrathecal (spinal) injection: produces disturbances of motor function and antinociception

## CC[C@H](C)[C@H](NC(=O)[C@H](CCCNC(=N)N)NC(=O)[C@H](CC(C)C)NC(=O)[C@@H](N)Cc1ccccc1)C(=O)N[C@@H](CCCNC(=N)N)C(=O)N1CCC[C@H]1C(=O)N[C@@H](CCCCN)C(=O)O [LYS1044, Phe-Leu-Arg-Ile-Arg-Pro-Lys]
[3]; tactile hypersensitivity
  anti-allodynic effect: anti-allodynic effects
[3]; thermal hyperalgesia
  anti-hyperalgesic effect: dose dependent anti-hyperalgesic
[4]
  toxic effect on rotarod experiment: no toxic effect
[2]
  motor function after intrathecal (spinal) injection: does not produce motor impairment
[2]; spinal administration
  prevention of dynorphin A-(2-13)-induced paralysis: prevents dynorphin A-(2-13)-induced paralysis
[5]
  changes in paw volume: does not show changes in paw volume
  prevention of bradykinin-induced plasma extravasation: does not prevent bradykinin-induced plasma extravasation
[6]
  half-life: < 3 h

## CC[C@H](C)[C@H](NC(=O)[C@H](CCCNC(=N)N)NC(=O)[C@@H](CC(C)C)NC(=O)[C@@H](N)Cc1ccccc1)C(=O)N[C@@H](CCCNC(=N)N)C(=O)N1CCC[C@H]1C(=O)N[C@@H](CCCCN)C(=O)O [SH145]
[1]; [10]
  IC50: 99 nM
[1]; rat brain bradykinin receptors
  binding affinity at bradykinin receptors (in words): retained the same high binding affinity as LYS1044
[6]
  half-life: > 24 h

## AN101: modified dynorphin A analog; Table 6 prints only the change: Nle at position 8 (FLR[Nle]RPK)
[1]; [11]
  IC50: 140 nM

## AN108-1: dynorphin A analog; Table 4 prints only changes: Ac- at 4, Nle at 5, Nle at 8, Arg at 11 (Ac-F[Nle]R[Nle]RPR)
[1]; [12]
  IC50: 140 nM

## AN108-4: dynorphin A analog; Table 4 prints only changes: Ac-DPhe at 4, Nle at 5, Nle at 8, Arg at 11 (Ac-[dF][Nle]R[Nle]RPR)
[1]; [12]
  IC50: 54 nM

## AN109: dynorphin A analog; Table 4 prints only changes: Ac- in Gly^3 column, Nle at 5, Nle at 8, Arg at 11 (Ac-GF[Nle]R[Nle]RPR)
[1]; [12]
  IC50: 210 nM

## Ac-Phe-Leu-Arg-Ile-Arg-Pro-DLys (Ac-FLRIRP[dK]) [AP111]
[1]; [13]
  IC50: 550 nM

## FIRIRPR [AN105]
[1]; [11]
  IC50: 110 nM

## FLRIRPK [AP107-1, Ac-Phe-Leu-Arg-Ile-Arg-Pro-Lys]
[1]; [13]
  IC50: 120 nM
[1]; [12]
  IC50: 120 nM

## FLRIRPR [AN104]
[1]; [12]
  IC50: 210 nM
[1]; [11]
  IC50: 210 nM

## FLRLRPR [AN106]
[1]; [11]
  IC50: 100 nM

## FLRRIRPK [Analogs S1F, Phe-Leu-Arg-Arg-Ile-Arg-Pro-Lys-NH2]
[1]; [13]
  IC50: 6800 nM

## FLRRIRPK [LYS1026, Phe-Leu-Arg-Arg-Ile-Arg-Pro-Lys]
[1]; [8]
  IC50: 69 nM
[1]; [9]
  IC50: 140 nM
[1]; [13]
  IC50: 140 nM

## FLRRIRRPK [SH114, Phe-Leu-Arg-Arg-Ile-Arg-Arg-Pro-Lys]
[1]; [14]
  IC50: 74 nM

## GFLR [LYS1031, Gly-Phe-Leu-Arg-NH2]
[1]; [13]
  IC50: > 10000 nM

## GFLR [LYS1035, Gly-Phe-Leu-Arg]
[1]; [15]
  IC50: 950 nM
[1]; [13]
  IC50: 950 nM

## GFLRIR [Analogs J101, Gly-Phe-Leu-Arg-Ile-Arg]
[1]; [16]
  IC50: 620 nM

## GFLRIRPK [LYS1045, Gly-Phe-Leu-Arg-Ile-Arg-Pro-Lys]
[1]; [16]
  IC50: 130 nM

## GFLRIRPKLK [LYS1042, Gly-Phe-Leu-Arg-Ile-Arg-Pro-Lys-Leu-Lys]
[1]; [8]
  IC50: 26 nM
[1]; [9]
  IC50: 41 nM
[1]; [16]
  IC50: 43 nM

## GFLRR [BP006D, Gly-Phe-Leu-Arg-Arg]
[1]; [15]
  IC50: 8100 nM

## GFLRRI [LYS1004, Gly-Phe-Leu-Arg-Arg-Ile]
[1]; [15]
  IC50: 2300 nM

## GFLRRIR [Analogs J104, Gly-Phe-Leu-Arg-Arg-Ile-Arg]
[1]; [15]
  IC50: 780 nM

## GFLRRIRP [BP1004D, Gly-Phe-Leu-Arg-Arg-Ile-Arg-Pro]
[1]; [15]
  IC50: 1200 nM

## GFLRRIRPK [LYS1027, Gly-Phe-Leu-Arg-Arg-Ile-Arg-Pro-Lys]
[1]; [15]
  IC50: 130 nM

## GFLRRIRPKL [LYS1024, Gly-Phe-Leu-Arg-Arg-Ile-Arg-Pro-Lys-Leu]
[1]; [15]
  IC50: 280 nM

## GFLRRIRPKLK [LYS1021, Gly-Phe-Leu-Arg-Arg-Ile-Arg-Pro-Lys-Leu-Lys]
[1]; [15]
  IC50: 320 nM

## GGFLRIRPKLK [CYF103, Gly-Gly-Phe-Leu-Arg-Ile-Arg-Pro-Lys-Leu-Lys]
[1]; [8]
  IC50: 41 nM
[1]; [14]
  IC50: 41 nM

## IRPKL [RK107, Ile-Arg-Pro-Lys-Leu-NH2]
[1]; [13]
  IC50: 8700 nM

## IRPKLK [LYS1039, Ile-Arg-Pro-Lys-Leu-Lys]
[1]; [8]
  IC50: 63 nM
[1]; [9]
  IC50: 81 nM

## LRIRPK [LYS1043, Leu-Arg-Ile-Arg-Pro-Lys]
[1]; [16]
  IC50: 180 nM

## LRIRPKLK [LYS1040, Leu-Arg-Ile-Arg-Pro-Lys-Leu-Lys]
[1]; [8]
  IC50: 30 nM
[1]; [9]
  IC50: 68 nM
[1]; [16]
  IC50: 68 nM

## LRRIRPKL [LYS1022, Leu-Arg-Arg-Ile-Arg-Pro-Lys-Leu]
[1]; [13]
  IC50: 7100 nM

## LYS1107: modified dynorphin A analog; Table 6 prints only the change: Nle at position 12 (PK[Nle]K; ends and bridges not checked; also: modified dynorphin A analog, full sequence beyond listed fragment not given here)
[1]; [11]
  IC50: 72 nM

## PKLK [LYS1038, Pro-Lys-Leu-Lys]
[1]; [8]
  IC50: 210 nM
[1]; [9]
  IC50: 120 nM

## RIRPKL [RK108, Arg-Ile-Arg-Pro-Lys-Leu-NH2]
[1]; [13]
  IC50: 6300 nM

## RIRPKLK [LYS1114, Arg-Ile-Arg-Pro-Lys-Leu-Lys]
[1]; [8]
  IC50: 72 nM

## RPKLK [LYS1113, Arg-Pro-Lys-Leu-Lys]
[1]; [8]
  IC50: 58 nM

## SH124: modified dynorphin A analog; Table 6 prints only changes: Nle at 8, Lys at 9, Nle at 12 ([Nle]KPK[Nle]K; ends and bridges not checked; also: modified dynorphin A analog, full sequence beyond listed fragment not given here)
[1]; [10]
  IC50: 78 nM

## Tyr-Gly-Gly-Phe-Leu-Arg-Arg-Ile-Arg-Pro-Lys-Leu-Lys (YGGFLRRIRPKLK; listed as Homo sapiens) [dynorphin A-(1-13)]
[7]
  activity in guinea pig ileum test: substantially more active than the enkephalins and β-endorphin

## WLRIRPK [AN103]
[1]; [11]
  IC50: 190 nM
